Data published in patent US11254663B2 (BRISTOL-MYERS SQUIBB COMPANY, priority 2019, dated 2022).

What follows are compounds tested against FXR (Homo sapiens (Human), UniProt Q96RI1) (assay: FXR EC50 (FXR agonist potency reported with each Example)).
Assay type: cell-based

FXR, sequence (Q96RI1 262-486): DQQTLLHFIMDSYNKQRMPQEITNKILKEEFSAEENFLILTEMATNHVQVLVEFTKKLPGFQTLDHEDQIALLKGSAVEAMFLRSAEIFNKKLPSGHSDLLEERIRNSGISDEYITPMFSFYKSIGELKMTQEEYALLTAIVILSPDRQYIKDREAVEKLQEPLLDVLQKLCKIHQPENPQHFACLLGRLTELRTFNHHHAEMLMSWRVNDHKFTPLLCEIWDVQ

Compared with `O=C(N(CC12CCC(c3cc(C(F)(F)F)ccn3)(CC1)CC2)c1cccc(-c2nc(C3CC3)no2)c1)C12CC(F)(C1)C2` [Example 50, N-(3-(3-cyclopropyl-1,2,4-oxadiazol-5-yl)phenyl)-3-fluoro-N-((4-(4-(trifluoromethyl)pyridin-2-yl)bicyclo[2.2.2]octan-1-yl)methyl)bicyclo[1.1.1]pentane-1-carboxamide], `Cc1cc(C23CCC(CN(C(=O)C45CC(F)(C4)C5)c4cccc(-c5nc(C6CC6)no5)c4)(CC2)CC3)ccn1` [Example 32, N-(3-(3-cyclopropyl-1,2,4-oxadiazol-5-yl)phenyl)-3-fluoro-N-((4-(2-methylpyridin-4-yl)bicyclo[2.2.2]octan-1-yl)methyl)bicyclo[1.1.1]pentane-1-carboxamide] is 1.6-fold higher in EC50: 0.462 µM for the first, 0.756 µM for the second.

Going from `CCOc1nnc(-c2cccc(N(CC34CCC(c5nc(C6CC6)no5)(CC3)CC4)C(=O)C3CCC3)c2)o1` [Example 54, N-((4-(3-cyclopropyl-1,2,4-oxadiazol-5-yl)bicyclo[2.2.2]octan-1-yl)methyl)-N-(3-(5-ethoxy-1,3,4-oxadiazol-2-yl)phenyl)cyclobutanecarboxamide] to `CCOc1nnc(-c2cccc(N(CC34CCC(c5nc(C6CC6)no5)(CC3)CC4)C(=O)C34CC(F)(C3)C4)c2)o1` [Example 53, N-((4-(3-cyclopropyl-1,2,4-oxadiazol-5-yl)bicyclo[2.2.2]octan-1-yl)methyl)-N-(3-(5-ethoxy-1,3,4-oxadiazol-2-yl)phenyl)-3-fluorobicyclo[1.1.1]pentane-1-carboxamide], the EC50 falls from 0.215 µM to 0.081 µM (2.7-fold).

`CC(N(C(=O)C12CC(F)(C1)C2)c1cccc(-c2cnc(C3CC3)o2)c1)C12CCC(c3nc(C4CC4)no3)(CC1)CC2` (single isomer, unassigned) [Example 215, N-(1-(4-(3-cyclopropyl-1,2,4-oxadiazol-5-yl)bicyclo[2.2.2]octan-1-yl)ethyl)-N-(3-(2-cyclopropyloxazol-5-yl)phenyl)-3-fluorobicyclo[1.1.1]pentane-1-carboxamide] and `O=C(N(CC12CCC(c3nc(C4CC4)no3)(CC1)CC2)c1cccc(-c2cnc(C3CCOCC3)o2)c1)C12CC(F)(C1)C2` [Example 35, N-((4-(3-cyclopropyl-1,2,4-oxadiazol-5-yl)bicyclo[2.2.2]octan-1-yl)methyl)-3-fluoro-N-(3-(2-(tetrahydro-2H-pyran-4-yl)oxazol-5-yl)phenyl)bicyclo[1.1.1]pentane-1-carboxamide] are within 1.5-fold of each other in EC50: 0.269 µM for the first, 0.251 µM for the second.

First: Cc1cnc(C23CCC(CN(c4cccc(-c5nc(C(F)F)co5)c4)C(=O)[C@H]4C[C@](O)(C(F)(F)F)C4)(CC2)CC3)o1 [Example 46, (cis)-N-(3-(4-(difluoromethyl)oxazol-2-yl)phenyl)-3-hydroxy-N-((4-(5-methyloxazol-2-yl)bicyclo[2.2.2]octan-1-yl)methyl)-3-(trifluoromethyl)cyclobutane-1-carboxamide]
Second: O=C(C1CC(F)(F)C1)N(CC12CCC(c3nc(C4CC4)no3)(CC1)CC2)c1cccc(-c2nnc(C3CC3)o2)c1 [Example 87, N-((4-(3-cyclopropyl-1,2,4-oxadiazol-5-yl)bicyclo[2.2.2]octan-1-yl)methyl)-N-(3-(5-cyclopropyl-1,3,4-oxadiazol-2-yl)phenyl)-3,3-difluorocyclobutane-1-carboxamide]
The EC50 of the first is 1.6-fold lower: 0.437 µM for the first, 0.712 µM for the second.

Compared with `CC(F)(F)c1nc(C23CCC(CN(C(=O)C45CC(F)(C4)C5)c4cccc(-c5noc(C6(C)CC6)n5)c4)(CC2)CC3)no1` [Example 179, N-((4-(5-(1,1-difluoroethyl)-1,2,4-oxadiazol-3-yl)bicyclo[2.2.2]octan-1-yl)methyl)-3-fluoro-N-(3-(5-(1-methylcyclopropyl)-1,2,4-oxadiazol-3-yl)phenyl)bicyclo[1.1.1]pentane-1-carboxamide], `CC(C)(C)c1nc(C23CCC(CN(C(=O)C45CC(F)(C4)C5)c4cccc(-c5noc(C6(C)CC6)n5)c4)(CC2)CC3)no1` [Example 177, N-((4-(5-(tert-butyl)-1,2,4-oxadiazol-3-yl)bicyclo[2.2.2]octan-1-yl)methyl)-3-fluoro-N-(3-(5-(1-methylcyclopropyl)-1,2,4-oxadiazol-3-yl)phenyl)bicyclo[1.1.1]pentane-1-carboxamide] is 1.8-fold lower in EC50: 0.058 µM for the first, 0.033 µM for the second.

First: Cc1cc(C23CCC(CN(C(=O)C4CCC(F)(F)C4)c4cccc(-c5nc(C6CC6)no5)c4)(CC2)CC3)ccn1 (stereo not drawn) [Example 33, N-(3-(3-cyclopropyl-1,2,4-oxadiazol-5-yl)phenyl)-3,3-difluoro-N-((4-(2-methylpyridin-4-yl)bicyclo[2.2.2]octan-1-yl)methyl)cyclopentane-1-carboxamide]
Second: Cn1nc(C2CC2)cc1C12CCC(CN(C(=O)C3CC(F)(F)C3)c3cccc(-c4nc(C5CC5)no4)c3)(CC1)CC2 [Example 127, N-(3-(3-cyclopropyl-1,2,4-oxadiazol-5-yl)phenyl)-N-((4-(3-cyclopropyl-1-methyl-1H-pyrazol-5-yl)bicyclo[2.2.2]octan-1-yl)methyl)-3,3-difluorocyclobutane-1-carboxamide]
The EC50 of the first is 12-fold higher: 4.32 µM for the first, 0.374 µM for the second. The second is the more potent here.

First: Cc1noc(-c2cccc(N(CC34CCC(c5ccc(C6CC6)cc5)(CC3)CC4)C(=O)C3CC3)c2)n1 [Example 2, N-((4-(4-cyclopropylphenyl)bicyclo[2.2.2]octan-1-yl)methyl)-N-(3-(3-methyl-1,2,4-oxadiazol-5-yl)phenyl)cyclopropanecarboxamide]
Second: O=C(C1CC(F)(F)C1)N(CC12CCC(c3nc(CC4CC4)no3)(CC1)CC2)c1cccc(-c2nc(C3CC3)no2)c1 [Example 70, N-(3-(3-cyclopropyl-1,2,4-oxadiazol-5-yl)phenyl)-N-((4-(3-(cyclopropylmethyl)-1,2,4-oxadiazol-5-yl)bicyclo[2.2.2]octan-1-yl)methyl)-3,3-difluorocyclobutane-1-carboxamide]
The EC50 of the first is 5.1-fold higher: 3.06 µM for the first, 0.598 µM for the second.

Compared with `CC(C)(C)c1noc(C23CCC(CN(C(=O)C4CN(C(=O)C(F)(F)F)C4)c4cccc(-c5nc(C6CC6)no5)c4)(CC2)CC3)n1` [Example 193, N-((4-(3-(tert-butyl)-1,2,4-oxadiazol-5-yl)bicyclo[2.2.2]octan-1-yl)methyl)-N-(3-(3-cyclopropyl-1,2,4-oxadiazol-5-yl)phenyl)-1-(2,2,2-trifluoroacetyl)azetidine-3-carboxamide], `O=C(C1CCC(F)(F)C1)N(CC12CCC(c3nc(CC4CC4)no3)(CC1)CC2)c1cccc(-c2nc(C3CC3)no2)c1` (stereo not drawn) [Example 69, N-(3-(3-cyclopropyl-1,2,4-oxadiazol-5-yl)phenyl)-N-((4-(3-(cyclopropylmethyl)-1,2,4-oxadiazol-5-yl)bicyclo[2.2.2]octan-1-yl)methyl)-3,3-difluorocyclopentane-1-carboxamide] is 10-fold lower in EC50: 4.87 µM for the first, 0.474 µM for the second.

`CC1(c2nc(-c3cccc(N(CC45CCC(c6nc(C(F)F)no6)(CC4)CC5)C(=O)C45CC(F)(C4)C5)c3)no2)COC1` [Example 173, N-((4-(3-(difluoromethyl)-1,2,4-oxadiazol-5-yl)bicyclo[2.2.2]octan-1-yl)methyl)-3-fluoro-N-(3-(5-(3-methyloxetan-3-yl)-1,2,4-oxadiazol-3-yl)phenyl)bicyclo[1.1.1]pentane-1-carboxamide] and `CC1(c2nc(-c3cccc(N(CC45CCC(c6nc(C7CC7)no6)(CC4)CC5)C(=O)C45CC(F)(C4)C5)c3)no2)COC1` [Example 113, N-((4-(3-cyclopropyl-1,2,4-oxadiazol-5-yl)bicyclo[2.2.2]octan-1-yl)methyl)-3-fluoro-N-(3-(5-(3-methyloxetan-3-yl)-1,2,4-oxadiazol-3-yl)phenyl)bicyclo[1.1.1]pentane-1-carboxamide] are within 1.5-fold of each other in EC50: 0.139 µM for the first, 0.121 µM for the second.

`Cn1nc(C2CC2)cc1C12CCC(CN(C(=O)C34CC(F)(C3)C4)c3cccc(-c4nc(C5CC5)no4)c3)(CC1)CC2` [Example 126, N-(3-(3-cyclopropyl-1,2,4-oxadiazol-5-yl)phenyl)-N-((4-(3-cyclopropyl-1-methyl-1H-pyrazol-5-yl)bicyclo[2.2.2]octan-1-yl)methyl)-3-fluorobicyclo[1.1.1]pentane-1-carboxamide] and `O=C(N(CC12CCC(c3nc(C4CC4)no3)(CC1)CC2)c1cccc(-c2nnc(C3CC3)o2)c1)C12CC(F)(C1)C2` [Example 86, N-((4-(3-cyclopropyl-1,2,4-oxadiazol-5-yl)bicyclo[2.2.2]octan-1-yl)methyl)-N-(3-(5-cyclopropyl-1,3,4-oxadiazol-2-yl)phenyl)-3-fluorobicyclo[1.1.1]pentane-1-carboxamide] are within 1.5-fold of each other in EC50: 0.087 µM for the first, 0.123 µM for the second.

First: O=C(N(CC12CCC(c3ccc(C(F)(F)F)cn3)(CC1)CC2)c1cccc(-c2noc(C(F)F)n2)c1)C12CC(F)(C1)C2 [Example 189, N-(3-(5-(difluoromethyl)-1,2,4-oxadiazol-3-yl)phenyl)-3-fluoro-N-((4-(5-(trifluoromethyl)pyridin-2-yl)bicyclo[2.2.2]octan-1-yl)methyl)bicyclo[1.1.1]pentane-1-carboxamide]
Second: CC(C)(C)c1nc(-c2cccc(N(CC34CCC(c5noc(C(C)(C)C)n5)(CC3)CC4)C(=O)C34CC(F)(C3)C4)c2)no1 [Example 183, N-((4-(5-(tert-butyl)-1,2,4-oxadiazol-3-yl)bicyclo[2.2.2]octan-1-yl)methyl)-N-(3-(5-(tert-butyl)-1,2,4-oxadiazol-3-yl)phenyl)-3-fluorobicyclo[1.1.1]pentane-1-carboxamide]
The EC50 of the first is 38-fold higher: 0.691 µM for the first, 0.018 µM for the second. The second is the more potent here.

Going from `COc1ncc(C23CCC(CN(C(=O)C45CC(F)(C4)C5)c4cccc(-c5nc(C6CC6)no5)c4)(CC2)CO3)cn1` [Example 140, N-(3-(3-Cyclopropyl-1,2,4-oxadiazol-5-yl)phenyl)-3-fluoro-N-((1-(2-methoxypyrimidin-5-yl)-2-oxabicyclo[2.2.2]octan-4-yl)methyl)bicyclo[1.1.1]pentane-1-carboxamide] to `O=C(C1CCC(F)(F)C1)N(CC12CCC(c3nc(CC4CC4)no3)(CC1)CC2)c1cccc(-c2nc(CC3CC3)no2)c1` (stereo not drawn) [Example 62, N-((4-(3-(cyclopropylmethyl)-1,2,4-oxadiazol-5-yl)bicyclo[2.2.2]octan-1-yl)methyl)-N-(3-(3-(cyclopropylmethyl)-1,2,4-oxadiazol-5-yl)phenyl)-3,3-difluorocyclopentane-1-carboxamide], the EC50 falls from 0.582 µM to 0.363 µM (1.6-fold).
